Laboratory results from patent publication US12617779B2, “Self degradation-type CDK9 inhibitor prodrug and liposome encapsulating same” (Sumitomo Pharma Co., Ltd., priority 2021, dated 2026).

How the values were obtained:
[1] = Stability evaluation of solution formulation (Experimental Example 2); assay type: physicochemical; conditions: for Stability / conversion to Alvocidib in solution formulation at pH 3: pH 3, 5° C.; for Stability / conversion to Alvocidib in solution formulation at pH 3 / Stability / conversion to Alvocidib in solution formulation at pH 4: up to 4 weeks; for Stability / conversion to Alvocidib in solution formulation at pH 4: pH 4, 5° C.
Procedure: For Example 1, Example 2, Example 5, Example 6, Comparative Example 13 and Comparative Example 14, the attrition rate of the test compound and the conversion rate of the test compound to Alvocidib in a solution formulation were calculated by the following method.
Example 1, Example 2, Example 5, Example 6, Comparative Example 13 and Comparative Example 14 were each added to buffer solutions adjusted to pH 3.0, 4.0 and 5.0, respectively, at a concentration of 0.1 mg/mL, and left at 5° C. After 0, 1, 2 and 4 weeks, the residual rates of the compounds of Example 1, Example 2, […], Comparative Example 13 and Comparative Example 14 and the production rate of Alvocidib were determined by HPLC.
The buffer solutions used at each pH are as follows. • pH 3.0: 5 mM tartrate buffer solution/10% sucrose solution (pH 3.0) • pH 4.0: 5 mM tartrate buffer solution/10% sucrose solution (pH 4.0) • pH 5.0: 5 mM tartrate buffer solution/10% sucrose solution (pH 5.0)
The measurement conditions for HPLC are as follows.
• column: Acquity UPLC BEH C18, 1.7 um, 50×2.1 mm • column temperature: 40° C. • mobile phase: • A: water containing 0.1% trifluoroacetic acid • B: acetonitrile • A/B (min): • 80/20(0)→75/25(3)→0/100(3.5)→0/100(4)→80/20(4.01)→80/20(5) • flow rate: 0.8 mL/min • detection: ultraviolet visible detector, measurement wavelength 254 nm • injection: 3 μL

[2] = tested on: EMT6 cells; experiment: Drug efficacy evaluation test using tumor-bearing mice transplanted with EMT6 cells (Experimental Example 7); assay type: in vivo, BALB/c mice; conditions: liposome formulation, tail vein, 25 mg/kg and 50 mg/kg twice a week
Procedure: The liposome formulation encapsulating the compound of the present disclosure was treated and evaluated for anti-tumor effect.
The liposome formulations were prepared as follows. The liposomes encapsulating the compounds of Example 3 and Example 4 were prepared in the same manner as in Experimental Example 4, respectively. The liposome outer solution was replaced with 10 mM tartrate buffer solution/10% sucrose solution (pH 4) using Sephadex G-25 column (PD-10, manufactured by GE Healthcare), followed by concentration by an ultrafiltration filter (AmiconUltra, 100K, 15 mL, manufactured by Merck), and filtration through a 0.22 μm membrane filter.
EMT6 cells (ATCC) were intradermally transplanted into 5-week-old BALB/c mice (BALB/cAnNCrlCrlj, female, Charles River, Japan) around the ventral region at 5×10^5 cells/mouse. […] The tumor volume was measured over time from the start of administration, and the tumor volume reduction effect due to compound administration was evaluated. The tumor volume was calculated by the following formula using the short and long diameters of the tumor measured with an electronic caliper (Mitutoyo). […]
The anti-tumor effect was evaluated by comparing the control group administered with the empty liposome solution and the administration group of the compound of the present disclosure, and calculating T/C by the following formula.

[3] = solution formulation, pH3.0, 0 week
[4] = solution formulation, pH3.0, 1 week
[5] = solution formulation, pH3.0, 2 week
[6] = solution formulation, pH3.0, 4 week
[7] = solution formulation, pH4.0, 0 week
[8] = solution formulation, pH4.0, 1 week
[9] = solution formulation, pH4.0, 2 week
[10] = solution formulation, pH4.0, 4 week
[11] = solution formulation, pH5.0, 0 week
[12] = solution formulation, pH5.0, 1 week
[13] = solution formulation, pH5.0, 2 week
[14] = solution formulation, pH5.0, 4 week

SMILES | Stability / conversion to Alvocidib in solution formulation at pH 3 [1] | Stability / conversion to Alvocidib in solution formulation at pH 4 [1] | Production rate of Alvocidib [1, 3] | Residual rate [1, 3] | Production rate of Alvocidib [1, 4] | Residual rate [1, 4] | Production rate of Alvocidib [1, 5] | Residual rate [1, 5] | Production rate of Alvocidib [1, 6] | Residual rate [1, 6] | Production rate of Alvocidib [1, 7] | Residual rate [1, 7] | Production rate of Alvocidib [1, 8] | Residual rate [1, 8] | Production rate of Alvocidib [1, 9] | Production rate of Alvocidib [1, 10] | Production rate of Alvocidib [1, 11] | Production rate of Alvocidib [1, 12] | Production rate of Alvocidib [1, 13] | Production rate of Alvocidib [1, 14] | further results
CCCN(C[C@@H]1CCCCN1)C(=O)Oc1cc(O)c2c(=O)cc(-c3ccccc3Cl)oc2c1[C@H]1CCN(C)C[C@H]1O [Example 5, 2-(2-chlorophenyl)-5-hydroxy-8-[(3S,4R)-3-hydroxy-1-methylpiperidin-4-yl]-4-oxo-4H-1-benzopyran-7-yl {[(2S)-piperidin-2-yl]methyl}propylcarbamate] | stable | stable | 0.2% | 98.2% | 0.2% | 98.2% | 0.3% | 98.1% | 0.3% | 98.1% | 0.2% | 98.2% | 0.3% | 98.2% | 0.4% | 0.5% | 0.4% | 1.2% | 2.1% | 3.7% | Residual rate [1, 9]: 98.1%; Residual rate [1, 10]: 98.1%; Residual rate [1, 11]: 98.1%; Residual rate [1, 12]: 97.2%; Residual rate [1, 13]: 96.6%; Residual rate [1, 14]: 95.0%
CCN(C[C@H]1CCCCN1)C(=O)Oc1cc(O)c2c(=O)cc(-c3ccccc3Cl)oc2c1[C@H]1CCN(C)C[C@H]1O [Example 2, 2-(2-chlorophenyl)-5-hydroxy-8-[(3S,4R)-3-hydroxy-1-methylpiperidin-4-yl]-4-oxo-4H-1-benzopyran-7-yl ethyl{[(2R)-piperidin-2-yl]methyl}carbamate] | stable | stable | 0.0% | 96.5% | 0.0% | 96.5% | 0.0% | 96.4% | 0.1% | 96.5% | 0.0% | 96.4% | 0.1% | 96.5% | 0.2% | 0.3% | 0.1% | 1.1% | 1.9% | 3.1% | Residual rate [1, 9]: 96.4%; Residual rate [1, 10]: 96.4%; Residual rate [1, 11]: 96.4%; Residual rate [1, 12]: 95.5%; Residual rate [1, 13]: 94.5%; Residual rate [1, 14]: 93.0%
CCN(C[C@@H]1CCCCN1)C(=O)Oc1cc(O)c2c(=O)cc(-c3ccccc3Cl)oc2c1[C@H]1CCN(C)C[C@H]1O [Example 1, 2-(2-chlorophenyl)-5-hydroxy-8-[(3S,4R)-3-hydroxy-1-methylpiperidin-4-yl]-4-oxo-4H-1-benzopyran-7-yl ethyl{[(2S)-piperidin-2-yl]methyl}carbamate ditrifluoroacetate] | stable | stable | 0.0% | – | 0.0% | – | 0.1% | – | 0.1% | – | 0.0% | – | 0.1% | – | 0.2% | 0.4% | 0.1% | 1.2% | 1.9% | 3.2% | Residual rate ([1]; solution formulation pH3.0, 0 week, 5° C., 0.1 mg/mL): 99.2%; Residual rate ([1]; solution formulation pH3.0, 1 week, 5° C., 0.1 mg/mL): 99.2%; Residual rate ([1]; solution formulation pH3.0, 2 weeks, 5° C., 0.1 mg/mL): 99.0%; Residual rate ([1]; solution formulation pH3.0, 4 weeks, 5° C., 0.1 mg/mL): 99.0%; Residual rate ([1]; solution formulation pH4.0, 0 week, 5° C., 0.1 mg/mL): 99.5%; Residual rate ([1]; solution formulation pH4.0, 1 week, 5° C., 0.1 mg/mL): 99.3%; Residual rate ([1]; solution formulation pH4.0, 2 weeks, 5° C., 0.1 mg/mL): 99.1%; Residual rate ([1]; solution formulation pH4.0, 4 weeks, 5° C., 0.1 mg/mL): 99.1%; Residual rate ([1]; solution formulation pH5.0, 0 week, 5° C., 0.1 mg/mL): 99.4%; Residual rate ([1]; solution formulation pH5.0, 1 week, 5° C., 0.1 mg/mL): 98.5%; Residual rate ([1]; solution formulation pH5.0, 2 weeks, 5° C., 0.1 mg/mL): 97.6%; Residual rate ([1]; solution formulation pH5.0, 4 weeks, 5° C., 0.1 mg/mL): 96.5%
CN1CC[C@H](c2c(OC(=O)N(C)C[C@@H]3CCCCN3)cc(O)c3c(=O)cc(-c4ccccc4Cl)oc23)[C@H](O)C1 [Example 3, 2-(2-chlorophenyl)-5-hydroxy-8-[(3S,4R)-3-hydroxy-1-methylpiperidin-4-yl]-4-oxo-4H-1-benzopyran-7-yl methyl{[(2S)-piperidin-2-yl]methyl}carbamate] | – | – | – | – | – | – | – | – | – | – | – | – | – | – | – | – | – | – | – | – | Effect on tumor volume [2]: significantly inhibited the increase in tumor volume
CN1CC[C@H](c2c(OC(=O)N(C)C[C@H]3CCCCN3)cc(O)c3c(=O)cc(-c4ccccc4Cl)oc23)[C@H](O)C1 [Example 4, 2-(2-chlorophenyl)-5-hydroxy-8-[(3S,4R)-3-hydroxy-1-methylpiperidin-4-yl]-4-oxo-4H-1-benzopyran-7-yl methyl{[(2R)-piperidin-2-yl]methyl}carbamate] | – | – | – | – | – | – | – | – | – | – | – | – | – | – | – | – | – | – | – | – | Effect on tumor volume [2]: significantly inhibited the increase in tumor volume
CCCN(C[C@H]1CCCCN1)C(=O)Oc1cc(O)c2c(=O)cc(-c3ccccc3Cl)oc2c1[C@H]1CCN(C)C[C@H]1O [Example 6, 2-(2-chlorophenyl)-5-hydroxy-8-[(3S,4R)-3-hydroxy-1-methylpiperidin-4-yl]-4-oxo-4H-1-benzopyran-7-yl {[(2R)-piperidin-2-yl]methyl}propylcarbamate] | stable | stable | 0.5% | 98.8% | 0.5% | 98.8% | 0.6% | 98.8% | 0.6% | 98.8% | 0.5% | 98.8% | 0.7% | 98.7% | 0.8% | 0.9% | 0.7% | 1.6% | 2.6% | 4.6% | Residual rate [1, 9]: 98.5%; Residual rate [1, 10]: 98.2%; Residual rate [1, 11]: 98.7%; Residual rate [1, 12]: 97.0%; Residual rate [1, 13]: 95.3%; Residual rate [1, 14]: 91.8%
